# Test results taken from US20210121376A1, “PEPTIDES ENCAPSULATED IN LECITHIN AND ALGINATE” (INFINITEC ACTIVOS, S.L., priority 2018, published 2021).
# Peptide text beside a SMILES is read from it. * marks the point of attachment. Palmitoyl = CCCCCCCCCCCCCCCC(=O)*; X1 = NCOCCOCCOCCCN*
# Tests used:
# papain [1] = molecular target: T1, papain (Carica papaya, UniProt P00784); assay: Peptide degradation by proteases (Example 8b, PH-26 peptide); type: in vitro ADME
# T1 sequence (P00784 134-345): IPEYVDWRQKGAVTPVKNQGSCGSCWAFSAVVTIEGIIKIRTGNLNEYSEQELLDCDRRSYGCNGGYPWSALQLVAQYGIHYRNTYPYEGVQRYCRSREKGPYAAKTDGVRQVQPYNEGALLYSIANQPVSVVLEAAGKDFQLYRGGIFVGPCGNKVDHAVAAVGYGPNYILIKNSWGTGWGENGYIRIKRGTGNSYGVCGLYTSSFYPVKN
# Description: b) 20 mg of papain were added to the formulation of Comparative example 6c, and 1.5 mg of papain were added to a solution of 40 mg of the formulation of Example 1c in 1.0 mL of PBS buffer. Both samples were incubated at 40° C. Aliquots were taken at study times 0 h, 0.17 h, 0.3 h and 24 h, after the addition of papain, centrifuged at 1400 rpm for 1 min, and the supernatant was filtered using a 0.45 μm filter and analyzed by HPLC.
# (§1) HPLC analysis was carried out in a Waters 996 instrument with a diode array detector equipped with Waters 2695 separations module and Millenium software; an Xbridge BEH130 C18 4.6×100 mm 3.5 μm reversed phase column by Waters was used. UV detection was performed at 220 nm and a mobile phase B gradient of 5 to 100% was performed for 8 minutes at 1.0 ml/min of flow. Under these conditions, the retention time of the peptide of formula (I) wherein R is palmitoyl (Matrixyl®, PP-4) is 6.4 min. Mobile phase A: 0.045% TFA/H2O, mobile phase B: 0.036% TFA/acetonitrile.
# papain [2] = molecular target: T1, papain; assay: Peptide degradation by proteases (Example 8a, PP-4 peptide); type: in vitro ADME
# Description: a) 5 mg of each of the formulations of Example 1b and Comparative example 6b were incubated at 40° C. with 20 mg of papain. Samples were taken at study times 0 h, 0.3 h, 0.6 h, and 5 h after the addition of papain, centrifuged at 1400 rpm for 1 min, and the supernatant was filtered using a 0.45 μm filter and analyzed by HPLC.
# as §1
Compound,degradation with papain (in words) (papain [1]),degradation with papain (in words) (papain [2])
"CCCCCCCCCCCCCCCC(=O)N[C@@H](CCCCN)C(=O)N[C@@H](C)C(=O)N[C@@H](CCC(N)=O)C(=O)N[C@@H](CCCCN)C(=O)N[C@@H](CCCNC(=N)N)C(=O)N[C@@H](Cc1ccccc1)C(=O)NCCCOCCOCCOCN [PH-26 peptide, R1-L-Lys-L-Ala-L-Gln-L-Lys-L-Arg-L-Phe-NH—(CH2)3—O—(CH2)2—O—(CH2)2—O—(CH2)—NH2] (Palmitoyl-KAQKRF-X1; N-terminus and C-terminus assumed)",nearly completely degraded,–
"CCCCCCCCCCCCCCCC(=O)N[C@@H](CCCCN)C(=O)N[C@H](C(=O)N[C@H](C(=O)N[C@@H](CCCCN)C(=O)N[C@@H](CO)C(=O)O)[C@@H](C)O)[C@@H](C)O [PP-4, Palm-L-Lys-L-Thr-L-Thr-L-Lys-L-Ser-OH] (Palmitoyl-KTTKS-OH)",–,completely degraded
